Values quoted from earlier work in patent publication US20180147234A1, “COMPOSITIONS AND METHODS FOR TREATMENT OF FIBROMYALGIA” (Luitpold Pharmaceuticals, Inc., priority 2015, published 2018).

Conditions: in vivo

polyglucose sorbitol carboxymethyl ether-coated non-stoichiometric magnetite [ferumoxytol]
Blood half-life: 10 to 14 h
